Laboratory results taken from patent US20250057928A1, “VACCINE COMPOSITION FOR INDUCING ANTI-IL-23 ANTIBODY” (OSAKA UNIVERSITY, priority 2021, published 2025).
Where no end group is shown, it is not given here.

Columns and labels:
[1] = biological target: T1, p19 subunit (Homo sapiens, UniProt Q9NPF7); conditions: compared with Ustekinumab; cited from earlier work
T1 sequence (Q9NPF7 20-189): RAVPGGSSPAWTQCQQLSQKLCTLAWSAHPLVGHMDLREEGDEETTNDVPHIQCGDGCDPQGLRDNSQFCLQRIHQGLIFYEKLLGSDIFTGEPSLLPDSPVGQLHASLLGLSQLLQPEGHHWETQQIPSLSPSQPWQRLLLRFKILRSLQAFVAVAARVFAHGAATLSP
T1 sequence (P29460 23-328 partner): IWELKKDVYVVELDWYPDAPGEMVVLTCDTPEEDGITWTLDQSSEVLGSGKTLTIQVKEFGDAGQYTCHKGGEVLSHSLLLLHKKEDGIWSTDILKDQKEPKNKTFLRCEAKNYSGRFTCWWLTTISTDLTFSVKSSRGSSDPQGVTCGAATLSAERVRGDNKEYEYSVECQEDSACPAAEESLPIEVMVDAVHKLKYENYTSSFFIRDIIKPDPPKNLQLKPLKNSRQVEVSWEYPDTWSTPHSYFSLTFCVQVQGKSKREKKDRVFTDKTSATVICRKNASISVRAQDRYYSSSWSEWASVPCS

[2] = system: epitope peptide; experiment: Antibody titer (GMT) of serum of mice administered AJP001 conjugated peptide, ELISA; type: in vivo, mouse; conditions: BALB/c mice, 0.5 mg/body intradermal with equal amount of 2% Alhydrogel, 3 times at two-week intervals; serum 6 weeks after initial administration; titer to each epitope sequence
Experimental: AJP001 conjugated peptide having one of the B cell epitope sequences of SEQ ID NOs: 1-5 was dissolved in physiological saline and intradermally administered twice to BALB/c mice (female, 6-week-old, N=5-6) at 0.5 mg/body at 2-week intervals. Blood was collected before administration and 5 weeks after the initial administration, and the antibody titer against each AJP001 conjugated peptide and the binding ability to recombinant mouse IL-23 protein (rmIL-23) were measured by the ELISA method. Specifically, a 96-well plate immobilized with an epitope peptide dissolved at 10 μg/mL in carbonate buffer was blocked with 5% skim milk/PBS, and then serum serially diluted with 5% skim milk/PBS was added, and the mixture was left standing at 4° C. overnight. After washing the wells with PBS-T, HRP-labeled anti-mouse IgG antibody (GE Healthcare) diluted with 5% skim milk/PBS was added and the mixture was shaken at room temperature for 3 hr. After washing the wells with PBS-T, TMB solution (SIGMA) was added, the wells were allowed to stand for 30 min in the dark, the reaction was stopped by adding 0.5M H2SO4, and the absorbance at 450 nm was measured using a plate reader. The serum dilution rate that gave 1/2 (OD=1.75) of the maximum absorbance was defined as the antibody titer, and the geometric mean titer: GMT was calculated from the individual values. Binding to IL-23 protein was measured by the ELISA method in the same manner as the antibody titer, using rmIL-23 (Antibodies-online GmbH) as the solid-phased antigen and goat serum for blocking.
AJP001 conjugated peptide (SEQ ID NO: 2) was dissolved in physiological saline and intradermally administered to BALB/c mice (female, 6-week-old, N=6) at 1 mg/body 3 times at two-week intervals, and blood was collected every 2 weeks until 8 weeks. The antibody titer (GMT) of all the collected sera and the binding ability to rmIL-23 of the serum at the time point of 6 weeks were measured by the ELISA method (same method as in Example 1). The antibody titer and the binding of the induced antibody to rmIL-23 at each time point are shown in FIGS. 2 (a) and (b), respectively.
AJP001 conjugated peptide (SEQ ID NOs: 6-37) was dissolved in physiological saline, mixed with an equal amount of 2% Alhydrogel (invivogen), and this was intradermally administered to BALB/c mice (female, 6-week-old, N=5-6) at 0.5 mg/body 3 times at two-week intervals. Blood was collected before administration and at the time point of 6 weeks after initial administration, and the antibody titer (GMT) to each epitope sequence and binding ability to recombinant human IL-23 protein (rhIL-23) (Peprotech) were measured by the ELISA method (same method as in Example 1). The binding to rhIL-23 was evaluated by a binding ratio to normal serum by calculating the ratio of the absorbance of a well added with normal mouse serum to the absorbance of a well added with antiserum derived from a mouse administered with each AJP001 conjugated peptide (SEQ ID NOs: 6-37). In addition, the neutralization activity of mouse antiserum was evaluated using an action on IL-17 production in rhIL-23 stimulated mouse splenocyte as an index. The spleen of normal BALB/c mouse (female, 5-week-old, N=3) was triturated using a syringe barrel and a cell strainer and washed with and suspended in HBSS (−). Erythrocytes were then removed using ACK Buffer (Thermo fisher scientific), and splenocytes were isolated. The splenocytes were prepared to 2.5×10^6 cells/mL with 10% FBS/1% penicillin/streptomycin/4 ng/mL rmIL-2-containing RPMI1640 medium (culture medium), and seeded in a 96 well plate at 100 μl/well. The antiserum (final concentration 15-fold) of the mice administered with each AJP001 conjugated peptide and rhIL-23 (final concentration 10 ng/ml) were added to the culture medium, reacted at 37° C. for 2 hr, added at 100 μL/well to a 96-well plate seeded with splenocytes, and cultured for 3 days in a 37° C./5% CO2 incubator. […]

[3] = system: recombinant human IL-23 protein (rhIL-23); experiment: Binding of mouse antiserum to rhIL-23, ELISA; conditions: rhIL-23 ELISA; antiserum of BALB/c mice 6 weeks after initial administration, 0.5 mg/body with Alhydrogel
Experimental: (§1) AJP001 conjugated peptide (SEQ ID NOs: 6-37) was dissolved in physiological saline, mixed with an equal amount of 2% Alhydrogel (invivogen), and this was intradermally administered to BALB/c mice (female, 6-week-old, N=5-6) at 0.5 mg/body 3 times at two-week intervals. Blood was collected before administration and at the time point of 6 weeks after initial administration, and the antibody titer (GMT) to each epitope sequence and binding ability to recombinant human IL-23 protein (rhIL-23) (Peprotech) were measured by the ELISA method (same method as in Example 1). The binding to rhIL-23 was evaluated by a binding ratio to normal serum by calculating the ratio of the absorbance of a well added with normal mouse serum to the absorbance of a well added with antiserum derived from a mouse administered with each AJP001 conjugated peptide (SEQ ID NOs: 6-37). In addition, the neutralization activity of mouse antiserum was evaluated using an action on IL-17 production in rhIL-23 stimulated mouse splenocyte as an index. The spleen of normal BALB/c mouse (female, 5-week-old, N=3) was triturated using a syringe barrel and a cell strainer and washed with and suspended in HBSS (−). Erythrocytes were then removed using ACK Buffer (Thermo fisher scientific), and splenocytes were isolated. The splenocytes were prepared to 2.5×10^6 cells/mL with 10% FBS/1% penicillin/streptomycin/4 ng/mL rmIL-2-containing RPMI1640 medium (culture medium), and seeded in a 96 well plate at 100 μl/well. The antiserum (final concentration 15-fold) of the mice administered with each AJP001 conjugated peptide and rhIL-23 (final concentration 10 ng/ml) were added to the culture medium, reacted at 37° C. for 2 hr, added at 100 μL/well to a 96-well plate seeded with splenocytes, and cultured for 3 days in a 37° C./5% CO2 incubator. An untreated well and a control well to which normal mouse serum and rhIL-23 were added were provided. IL-17A/F in the culture supernatant was measured using Mouse IL-17A/F ELISA kit (R&D systems), the proportion (%) of IL-17 to normal serum was calculated from the IL-17 concentrations of untreated well (A), control well (B), and well (C) to which antiserum of the mice administered with each AJP001 conjugated peptide was added and according to the following formula, and the neutralization activity was evaluated.
AJP001 conjugated peptide (SEQ ID NO: 6) was dissolved in physiological saline and intradermally administered to BALB/c mice (female, 6-week-old, N=6) at 1 mg/body 3 times at two-week intervals, and blood was collected every 2 weeks until 8 weeks. The antibody titer (GMT) of all the collected sera and the binding ability to rhIL-23 of the serum at 6 weeks were measured by the ELISA method. In FIG. 5, “*” means P<0.05.

[4] = system: IL-17 production in rhIL-23 stimulated mouse splenocyte; experiment: Neutralization activity of mouse antiserum: IL-17 production in rhIL-23 stimulated mouse splenocyte; type: cell-based; conditions: antiserum final 15-fold, rhIL-23 10 ng/ml, 3 days culture; IL-17A/F ELISA
Experimental: as §1
Percentage of IL-17 to normal serum (%)=100×(C−A/B−A)

Substance: Risankizumab
- PASI90 (almost complete disappearance of psoriasis lesion) rate [1]: about twice as high as that of Ustekinumab

Substance: 30 (KKSQPWQR; not fully specified (N-terminus)) [compound 30]
- antibody titer (GMT) [2]: 6917
- binding to IL-23 (binding ratio to normal serum) [3]: 1.2
- neutralization activity (percentage of IL-17 to normal serum (%)) [4]: 68.9%

Substance: 16 (QWQRPWQR; not fully specified (N-terminus)) [compound 16]
- antibody titer (GMT) [2]: 201
- binding to IL-23 (binding ratio to normal serum) [3]: 1.09
- neutralization activity (percentage of IL-17 to normal serum (%)) [4]: 3.6%

Substance: 14 (SPSQPWQA; not fully specified (N-terminus)) [compound 14]
- antibody titer (GMT) [2]: 3331
- binding to IL-23 (binding ratio to normal serum) [3]: 1.23
- neutralization activity (percentage of IL-17 to normal serum (%)) [4]: 8.0%

Substance: 6 (SPSQPWQR; not fully specified (N-terminus); listed as Homo sapiens) [compound 6]
- antibody titer (GMT) [2]: 12563
- binding to IL-23 (binding ratio to normal serum) [3]: 4.40
- neutralization activity (percentage of IL-17 to normal serum (%)) [4]: 15.8%

Substance: 25 (SPSQQWQR; not fully specified (N-terminus)) [compound 25]
- antibody titer (GMT) [2]: 285265
- binding to IL-23 (binding ratio to normal serum) [3]: 1.66
- neutralization activity (percentage of IL-17 to normal serum (%)) [4]: 2.1%

Substance: 23 (STSQSWQR; not fully specified (N-terminus)) [compound 23]
- antibody titer (GMT) [2]: 31720
- binding to IL-23 (binding ratio to normal serum) [3]: 1.33
- neutralization activity (percentage of IL-17 to normal serum (%)) [4]: 9.4%

Substance: 24 (STSQTWQR; not fully specified (N-terminus)) [compound 24]
- antibody titer (GMT) [2]: 126353
- binding to IL-23 (binding ratio to normal serum) [3]: 1.20
- neutralization activity (percentage of IL-17 to normal serum (%)) [4]: 0.0%

Substance: 10 (SPSAPWQR; not fully specified (N-terminus)) [compound 10]
- antibody titer (GMT) [2]: 19795
- binding to IL-23 (binding ratio to normal serum) [3]: 1.03
- neutralization activity (percentage of IL-17 to normal serum (%)) [4]: 0.0%

Substance: 35 (SQPWQRK; not fully specified (N-terminus); listed as Homo sapiens) [compound 35]
- antibody titer (GMT) [2]: 92
- binding to IL-23 (binding ratio to normal serum) [3]: 1.30
- neutralization activity (percentage of IL-17 to normal serum (%)) [4]: 32.5%

Substance: 27 (KPSQPWQR; not fully specified (N-terminus)) [compound 27]
- antibody titer (GMT) [2]: 12615
- binding to IL-23 (binding ratio to normal serum) [3]: 1.07
- neutralization activity (percentage of IL-17 to normal serum (%)) [4]: 72.3%

Substance: 17 (SSSQPWQR; not fully specified (N-terminus)) [compound 17]
- antibody titer (GMT) [2]: 6096
- binding to IL-23 (binding ratio to normal serum) [3]: 1.26
- neutralization activity (percentage of IL-17 to normal serum (%)) [4]: 1.6%

Substance: 19 (SPSQSWQR; not fully specified (N-terminus)) [compound 19]
- antibody titer (GMT) [2]: 18311
- binding to IL-23 (binding ratio to normal serum) [3]: 1.33
- neutralization activity (percentage of IL-17 to normal serum (%)) [4]: 2.4%

Substance: 32 (SQPWQR; not fully specified (N-terminus); listed as Homo sapiens) [compound 32]
- antibody titer (GMT) [2]: 5567
- binding to IL-23 (binding ratio to normal serum) [3]: 1.03
- neutralization activity (percentage of IL-17 to normal serum (%)) [4]: 61.3%

Substance: 13 (SPSQPWAR; not fully specified (N-terminus)) [compound 13]
- antibody titer (GMT) [2]: 3215
- binding to IL-23 (binding ratio to normal serum) [3]: 1.11
- neutralization activity (percentage of IL-17 to normal serum (%)) [4]: 4.8%

Substance: 11 (SPSQAWQR; not fully specified (N-terminus)) [compound 11]
- antibody titer (GMT) [2]: 10441
- binding to IL-23 (binding ratio to normal serum) [3]: 1.55
- neutralization activity (percentage of IL-17 to normal serum (%)) [4]: 8.1%
